Assay results from US20240166652A1, “MODULATORS OF THE INTEGRATED STRESS PATHWAY” (Calico Life Sciences LLC, priority 2017, published 2024).

System: ATF4 luciferase reporter in HEK293T cells
Assay: ATF4-Luc assay (ATF4 luciferase reporter, tunicamycin-treated HEK293T cells)
Type: cell-based, human
Conditions: Homo sapiens, HEK-293T; HEK293T cells carrying the ATF4 luciferase reporter, 1 μg/mL tunicamycin, 7 hours

| Compound | EC50 [nM] |
| --- | --- |
| COC(=O)[C@H]1CC2(NC(=O)COc3ccc(Cl)c(F)c3)CCC1(NC(=O)COc1ccc(Cl)c(F)c1)CC2 [Compound 562, methyl (2S)-1,4-bis[2-(4-chloro-3-fluorophenoxy)acetamido]bicyclo[2.2.2]octane-2-carboxylate] | < 10 |
| COC(=O)[C@@H]1CC2(NC(=O)COc3ccc(Cl)c(F)c3)CCC1(NC(=O)COc1ccc(Cl)c(F)c1)CC2 [Compound 563, methyl (2R)-1,4-bis[2-(4-chloro-3-fluorophenoxy)acetamido]bicyclo[2.2.2]octane-2-carboxylate] | < 10 |
| O=C(COc1ccc(Cl)c(F)c1)NC12CCC(OCc3ccc(Cl)cc3)(CC1)CC2=O [Compound 564, 2-(4-chloro-3-fluorophenoxy)-N-{4-[(4-chlorophenyl)methoxy]-2-oxobicyclo[2.2.2]octan-1-yl}acetamide] | > 2000 |
| O=C(COc1ccc(Cl)c(F)c1)NC12CCC(OCc3ccc(Cl)cc3)(CC1)CC2O (centres unmarked) [Compound 565, 2-(4-chloro-3-fluorophenoxy)-N-{4-[(4-chlorophenyl)methoxy]-2-hydroxybicyclo[2.2.2]octan-1-yl}acetamide] | 500 to 2000 |
| CC(C)(O)C1CC2(NC(=O)COc3ccc(Cl)c(F)c3)CCC1(NC(=O)COc1ccc(Cl)c(F)c1)CC2 (centres unmarked) [Compound 566, N,N′-[2-(2-hydroxypropan-2-yl)bicyclo[2.2.2]octane-1,4-diyl]bis[2-(4-chloro-3-fluorophenoxy)acetamide]] | 10 to 50 |
| O=C(COc1ccc(Cl)c(F)c1)NC12CCC(OCc3ccccc3)(CC1)CC2O (centres unmarked) [Compound 567, N-[4-(benzyloxy)-2-hydroxybicyclo[2.2.2]octan-1-yl]-2-(4-chloro-3-fluorophenoxy)acetamide] | 500 to 2000 |
| O=C(COc1ccc(Cl)c(F)c1)NC12CCC(NC(=O)COc3ccc(Cl)c(F)c3)(CC1)C(CO)C2 (centres unmarked) [Compound 568, N,N′-[2-(hydroxymethyl)bicyclo[2.2.2]octane-1,4-diyl]bis[2-(4-chloro-3-fluorophenoxy)acetamide]] | < 10 |
| COC(=O)C1CC2(NC(=O)COc3ccc(Cl)c(F)c3)CCC1(NC(=O)COc1ccc(Cl)c(F)c1)CC2 (centres unmarked) [Compound 569, methyl 1,4-bis[2-(4-chloro-3-fluorophenoxy)acetamido]bicyclo[2.2.2]octane-2-carboxylate] | < 10 |
| O=C(COc1ccc(Cl)c(F)c1)NC12CCC(NC(=O)COc3cc(F)c(Cl)cc3Br)(CC1)C(Br)C2=O (centres unmarked) [Compound 570, 2-(2-bromo-4-chloro-5-fluorophenoxy)-N-{2-bromo-4-[2-(4-chloro-3-fluorophenoxy)acetamido]-3-oxobicyclo[2.2.2]octan-1-yl}acetamide] | 50 to 250 |
| O=C(COc1ccc(Cl)c(F)c1)NC12CCC(NC(=O)COc3ccc(Cl)c(F)c3)(CC1)C(Br)C2=O (centres unmarked) [Compound 572, N,N′-(2-bromo-3-oxobicyclo[2.2.2]octane-1,4-diyl)bis[2-(4-chloro-3-fluorophenoxy)acetamide]] | 10 to 50 |
| O=C(COc1ccc(Cl)c(F)c1)NC1CCC2(NC(=O)COc3ccc(Cl)c(F)c3)CCC1C2 (centres unmarked) [Compound 573, N,N′-(bicyclo[3.2.1]octane-1,4-diyl)bis[2-(4-chloro-3-fluorophenoxy)acetamide]] | < 10 |
| O=C(COc1ccc(Cl)c(O)c1)NC12CCC(NC(=O)COc3ccc(Cl)c(F)c3)(CC1)[C@@H](O)C2 [Compound 574, 2-(4-chloro-3-fluorophenoxy)-N-{(2S)-4-[2-(4-chloro-3-hydroxyphenoxy)acetamido]-2-hydroxybicyclo[2.2.2]octan-1-yl}acetamide] | < 10 |
| Cc1cnc(OCC(=O)NC23CCC(NC(=O)COc4ccc(Cl)c(F)c4)(CC2)[C@@H](O)C3)s1 [Compound 575, 2-(4-chloro-3-fluorophenoxy)-N-[(2S)-2-hydroxy-4-{2-[(5-methyl-1,3-thiazol-2-yl)oxy]acetamido}bicyclo[2.2.2]octan-1-yl]acetamide] | > 2000 |
| O=C(COc1ccc(Cl)c(F)c1)NC12CCC(NC(=O)NCc3ccc(Cl)c(F)c3)(CC1)C[C@@H]2O [Compound 576, 2-(4-chloro-3-fluorophenoxy)-N-[(2S)-4-({[(4-chloro-3-fluorophenyl)methyl]carbamoyl}amino)-2-hydroxybicyclo[2.2.2]octan-1-yl]acetamide] | 10 to 50 |
| O=C(COc1nccs1)NC12CCC(NC(=O)COc3ccc(Cl)c(F)c3)(CC1)[C@@H](O)C2 [Compound 577, 2-(4-chloro-3-fluorophenoxy)-N-[(2S)-2-hydroxy-4-{2-[(1,3-thiazol-2-yl)oxy]acetamido}bicyclo[2.2.2]octan-1-yl]acetamide] | > 2000 |
| O=C(COc1nc2c(s1)CCCC2)NC12CCC(NC(=O)COc3ccc(Cl)c(F)c3)(CC1)[C@@H](O)C2 [Compound 578, 2-(4-chloro-3-fluorophenoxy)-N-[(2S)-2-hydroxy-4-{2-[(4,5,6,7-tetrahydro-1,3-benzothiazol-2-yl)oxy]acetamido}bicyclo[2.2.2]octan-1-yl]acetamide] | > 2000 |
| O=C(COc1ccc(Cl)cc1)NC12CC(NC(=O)COc3ccc4c(c3)OC(F)(F)O4)(C1)C2 [Compound 580, 2-(4-chlorophenoxy)-N-(3-{2-[(2,2-difluoro-2H-1,3-benzodioxol-5-yl)oxy]acetamido}bicyclo[1.1.1]pentan-1-yl)acetamide] | < 10 |
| O=C(COc1ccc(F)cc1)NC12CCC(NC(=O)COc3ccc(Cl)c(Cl)c3)(CC1)[C@@H](O)C2 [Compound 581, 2-(3,4-dichlorophenoxy)-N-{(2S)-4-[2-(4-fluorophenoxy)acetamido]-2-hydroxybicyclo[2.2.2]octan-1-yl}acetamide] | < 10 |
| O=C(COc1ccc(Cl)cc1)NC12CCC(NC(=O)COc3ccc(Cl)c(Cl)c3)(CC1)[C@@H](O)C2 [Compound 582, 2-(4-chlorophenoxy)-N-{(3S)-4-[2-(3,4-dichlorophenoxy)acetamido]-3-hydroxybicyclo[2.2.2]octan-1-yl}acetamide] | < 10 |
| O=C(COc1ccc(C(F)(F)F)nc1)NC12CCC(NC(=O)COc3ccc(Cl)c(Cl)c3)(CC1)[C@@H](O)C2 [Compound 583, 2-(3,4-dichlorophenoxy)-N-[(2S)-2-hydroxy-4-(2-{[6-(trifluoromethyl)pyridin-3-yl]oxy}acetamido)bicyclo[2.2.2]octan-1-yl]acetamide] | < 10 |
| O=C(COc1ccc(F)c(F)c1)NC12CC(NC(=O)COc3ccc(Cl)c(Cl)c3)(C1)C2 [Compound 584, 2-(3,4-dichlorophenoxy)-N-{3-[2-(3,4-difluorophenoxy)acetamido]bicyclo[1.1.1]pentan-1-yl}acetamide] | < 10 |
| O=C(COc1ccc(F)c(F)c1)NC12CCC(NC(=O)COc3ccc(Cl)c(F)c3)(CC1)[C@@H](O)C2 [Compound 586, 2-(4-chloro-3-fluorophenoxy)-N-{(2S)-4-[2-(3,4-difluorophenoxy)acetamido]-2-hydroxybicyclo[2.2.2]octan-1-yl}acetamide] | < 10 |
| O=C(COc1ccc(Cl)c(F)c1)NC12CCC(NC(=O)COc3ccc(F)c(F)c3)(CC1)[C@@H](O)C2 [Compound 587, 2-(4-chloro-3-fluorophenoxy)-N-{(3S)-4-[2-(3,4-difluorophenoxy)acetamido]-3-hydroxybicyclo[2.2.2]octan-1-yl}acetamide] | < 10 |
